Patent publication US12043600B2, “Microbiocidal compounds” (SYNGENTA CROP PROTECTION AG, priority 2018, dated 2024)

Tests used:
Alternaria solani = test: Alternaria solani/Tomato/Leaf Disc (Early Blight); type: in vivo; details: foliar, tomato leaf disc, compared to untreated control
Experimental: Tomato leaf disks cv. Baby are placed on agar in multiwell plates (24-well format) and sprayed with the formulated test compound diluted in water. The leaf disks are inoculated with a spore suspension of the fungus 2 days after application. The inoculated leaf disks are incubated at 23° C./21° C. (day/night) and 80% rh (relative humidity) under a light regime of 12/12 h (light/dark) in a climate cabinet and the activity of a compound is assessed as percent disease control compared to untreated when an appropriate level of disease damage appears on untreated check disk leaf disks (5-7 days after application).

[1] = test system: Glomerella lagenarium (Colletotrichum lagenarium); test: Glomerella lagenarium (Colletotrichum lagenarium)/Liquid Culture (Anthracnose); type: cell-based; details: Colletotrichum orbiculare, liquid culture, compared to untreated control
[2] = test system: Blumeria graminis f. sp. tritici (Erysiphe graminis f. sp. tritici); test: Blumeria graminis f. sp. tritici/Wheat/Leaf Disc Preventative (Powdery Mildew on Wheat); type: in vivo; details: foliar, wheat leaf disc preventative, compared to untreated control
Procedure, shortened: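 Preventative leaf-disc test: percent disease control versus untreated leaf segments read 6-8 days post-application. Compound spray applied to wheat cv. Kanzler segments on agar one day before shaking infected plants over them; incubation at 20° C and 60% rh, 24 h darkness then 12 h light/12 h dark cycles.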

[3] = test system: Monographella nivalis (Microdochium nivale); test: Monographella nivalis (Microdochium nivale)/Liquid Culture (Foot Rot Cereals); type: cell-based; details: liquid culture, compared to untreated control
Procedure, shortened: (§1)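 PDB + cryo-stored conidia; compound in DMSO pre-plated, spore broth added on top.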

[4] = test system: Mycosphaerella arachidis (Cercospora arachidicola); test: Mycosphaerella arachidis (Cercospora arachidicola)/Liquid Culture (Early Leaf Spot); type: cell-based; details: liquid culture, compared to untreated control
Procedure, shortened: as §1

[5] = test system: Puccinia recondita f. sp. tritici; test: Puccinia recondita f. sp. tritici/Wheat/Leaf Disc Curative (Brown Rust); type: in vivo; details: foliar, wheat leaf disc curative, compared to untreated control
Procedure, shortened: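 Formulated compound, diluted in water, is applied to inoculated wheat cv. Kanzler leaf segments on agar one day post-inoculation (pre-incubation dark, 19° C, 75% rh). After 6-8 days at 19° C, 75% rh and 12 h/12 h light, activity is rated as percent disease control relative to untreated segments.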

[6] = test system: Puccinia recondita f. sp. tritici; test: Puccinia recondita f. sp. tritici/Wheat/Leaf Disc Preventative (Brown Rust); type: in vivo; details: foliar, 200 ppm, wheat leaf disc preventative, compared to untreated control, read-out: control of Puccinia recondita f. sp. tritici
[7] = test system: Mycosphaerella graminicola (Septoria tritici); test: Mycosphaerella graminicola (Septoria tritici)/Liquid Culture (Septoria Blotch); type: cell-based; details: Zymoseptoria tritici; 20 ppm; liquid culture; compared to untreated control
Procedure, shortened: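 Results given as % disease control: test compound in DMSO was placed in wells first, then potato dextrose broth carrying cryostored fungal conidia was added.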

Phakopsora pachyrhizi = test: Phakopsora pachyrhizi/Soybean/Preventative (Soybean Rust); type: in vivo; details: foliar, 288 h, 200 ppm, soybean leaf disc preventative, compared to untreated control, read-out: control of Phakopsora pachyrhizi
Plasmopara viticola = test: whole plant or invertebrate; type: in vivo; details: foliar, read-out: control of Plasmopara viticola
[8] = test system: Magnaporthe grisea (Pyricularia oryzae); test: whole plant or invertebrate; type: in vivo; details: foliar, read-out: control of Magnaporthe grisea
[9] = test system: Botryotinia fuckeliana (Botrytis cinerea); test: Botryotinia fuckeliana (Botrytis cinerea)/Liquid Culture (Gray Mould); type: cell-based; details: liquid culture, compared to untreated control
Experimental: Conidia of the fungus from cryogenic storage are directly mixed into nutrient broth (Vogels broth). After placing a (DMSO) solution of test compound into a microtiter plate (96-well format), the nutrient broth containing the fungal spores is added.

[10] = test system: Phaeosphaeria nodorum (Septoria nodorum); test: Phaeosphaeria nodorum (Septoria nodorum)/Wheat/Leaf Disc Preventative (Glume Blotch); type: in vivo; details: Parastagonospora nodorum, foliar, wheat leaf disc preventative, compared to untreated control
Procedure, shortened: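 Preventative test: compound spray first, then spore inoculation after 2 days on cv. Kanzler wheat leaf segments. Incubation in a climate cabinet at 20 °C and 75% rh under a 12 h light/12 h dark cycle. Activity rated as % control relative to untreated discs at 5–7 days post-application.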

Phytophthora infestans = test: whole plant or invertebrate; type: in vivo; details: in Solanum lycopersicum, foliar, read-out: control of Phytophthora infestans
Pyrenophora teres = test: Pyrenophora teres/Barley/Leaf Disc Preventative (Net Blotch); type: in vivo; details: foliar, 200 ppm, barley leaf disc preventative, compared to untreated control, read-out: control of Pyrenophora teres
From the text: Barley leaf segments cv. Hasso are placed on agar in a multiwell plate (24-well format) and sprayed with the formulated test compound diluted in water. The leaf segments are inoculated with a spore suspension of the fungus 2 days after application. […] The data are presented as the percentage of disease control of each compound for the biological tests against G. lagenarium (Example B3), P. recondita preventative (Example B13), P. teres (Example B15) and M. graminicola (Example B19) as described above. The testing rates of each biological test is specifically described in table C1 below.

Structure (SMILES) | pest or weed control at 200 ppm (Alternaria solani) [%] | inhibition of growth at 20 ppm [1] [%] | pest or weed control at 200 ppm [2] [%] | inhibition of growth at 20 ppm [3] [%] | inhibition of growth at 20 ppm [4] [%] | pest or weed control at 200 ppm [5] [%] | pest or weed control at 200 ppm [6] [%] | inhibition of growth at 20 ppm [7] [%] | pest or weed control at 200 ppm (Phakopsora pachyrhizi) [%] | pest or weed control at 200 ppm (Plasmopara viticola) [%] | pest or weed control at 200 ppm [8] [%] | inhibition of growth at 20 ppm [9] [%] | pest or weed control at 200 ppm [10] [%] | pest or weed control at 200 ppm (Phytophthora infestans) [%] | pest or weed control at 200 ppm (Pyrenophora teres) [%] | melting point [°C]
CO/C=C(\Oc1cccc(-n2ccc(C(F)(F)F)n2)c1)C(=O)OC [Compound E-15, methyl (Z)-3-methoxy-2-[3-[3-(trifluoromethyl)pyrazol-1-yl]phenoxy]prop-2-enoate] | ≥ 80 | ≥ 80 | ≥ 80 | ≥ 80 | ≥ 80 | ≥ 80 | ≥ 80 | ≥ 80 | – | – | – | – | – | – | – | –
CO/C=C(\Oc1cc(-n2ccc(C(F)(F)F)n2)c(Cl)cc1C)C(=O)OC [Compound E-27, methyl (Z)-2-[4-chloro-2-methyl-5-[3-(trifluoromethyl)pyrazol-1-yl]phenoxy]-3-methoxy-prop-2-enoate] | ≥ 80 | ≥ 80 | ≥ 80 | ≥ 80 | ≥ 80 | ≥ 80 | ≥ 80 | ≥ 80 | ≥ 50 | ≥ 80 | ≥ 80 | – | – | – | – | –
CO/C=C(\Oc1cc(-n2cc(Cl)cn2)ccc1C)C(=O)OC [Compound E-54, methyl (Z)-2-[5-(4-chloropyrazol-1-yl)-2-methyl-phenoxy]-3-methoxy-prop-2-enoate] | – | ≥ 80 | ≥ 80 | ≥ 80 | ≥ 80 | – | ≥ 80 | ≥ 80 | – | ≥ 80 | – | ≥ 80 | ≥ 80 | ≥ 80 | ≥ 80 | –
CO/C=C(\Oc1cc(-n2cc(C)c(C(F)(F)F)n2)ccc1C)C(=O)OC [Compound E-75, methyl (Z)-3-methoxy-2-[2-methyl-5-[4-methyl-3-(trifluoromethyl)pyrazol-1-yl]phenoxy]prop-2-enoate] | – | – | ≥ 80 | ≥ 80 | ≥ 80 | – | ≥ 80 | ≥ 80 | – | ≥ 80 | – | ≥ 80 | ≥ 80 | – | ≥ 80 | 131 to 134
CO/C=C(\Oc1cc(-n2cc(C(F)(F)F)cn2)ccc1C)C(=O)OC [Compound E-81, methyl (Z)-3-methoxy-2-[2-methyl-5-[4-(trifluoromethyl)pyrazol-1-yl]phenoxy]prop-2-enoate] | – | ≥ 80 | ≥ 80 | ≥ 80 | ≥ 80 | – | ≥ 80 | ≥ 80 | ≥ 50 | ≥ 80 | ≥ 80 | ≥ 80 | ≥ 80 | ≥ 80 | ≥ 80 | 102 to 105
CO/C=C(\Oc1cc(-n2cc(Cl)c(C3CCCCC3)n2)ccc1C)C(=O)OC [Compound E-112, methyl (Z)-2-[5-(4-chloro-3-cyclohexyl-pyrazol-1-yl)-2-methyl-phenoxy]-3-methoxy-prop-2-enoate] | – | ≥ 80 | – | ≥ 80 | ≥ 80 | ≥ 80 | – | – | – | ≥ 80 | ≥ 80 | – | ≥ 80 | – | ≥ 80 | 150 to 152
CO/C=C(\Oc1cc(-n2cc(C)c(C3CCCCC3)n2)ccc1C)C(=O)OC [Compound E-113, methyl (Z)-2-[5-(3-cyclohexyl-4-methyl-pyrazol-1-yl)-2-methyl-phenoxy]-3-methoxy-prop-2-enoate] | ≥ 80 | ≥ 80 | – | ≥ 80 | ≥ 80 | – | ≥ 80 | ≥ 80 | – | ≥ 80 | ≥ 80 | – | ≥ 80 | ≥ 80 | – | 145 to 148
CO/C=C(\Oc1cc(-n2ccc(C3CCCCC3)n2)c(F)cc1C)C(=O)OC [Compound E-114, methyl (Z)-2-[5-(3-cyclohexylpyrazol-1-yl)-4-fluoro-2-methyl-phenoxy]-3-methoxy-prop-2-enoate] | – | ≥ 80 | ≥ 80 | ≥ 80 | ≥ 80 | ≥ 80 | ≥ 80 | ≥ 80 | – | ≥ 80 | ≥ 80 | – | ≥ 80 | ≥ 80 | ≥ 80 | –
CO/C=C(\Oc1cc(-n2ccc(C(F)(F)Cl)n2)ccc1C)C(=O)OC [Compound E-118, methyl (Z)-2-[5-[3-[chloro(difluoro)methyl]pyrazol-1-yl]-2-methyl-phenoxy]-3-methoxy-prop-2-enoate] | – | ≥ 80 | ≥ 80 | ≥ 80 | ≥ 80 | ≥ 80 | ≥ 80 | ≥ 80 | – | ≥ 80 | ≥ 80 | – | ≥ 80 | ≥ 80 | ≥ 80 | 146 to 148
C=C(C)c1cnn(-c2ccc(C)c(O/C(=C\OC)C(=O)OC)c2)n1 [Compound F-11, methyl (Z)-2-[5-(4-isopropenyltriazol-2-yl)-2-methyl-phenoxy]-3-methoxy-prop-2-enoate] | – | ≥ 80 | ≥ 80 | ≥ 80 | ≥ 80 | ≥ 80 | ≥ 80 | ≥ 80 | – | ≥ 80 | ≥ 80 | – | ≥ 80 | ≥ 80 | ≥ 80 | –
CCON=C(C)c1cnn(-c2ccc(C)c(O/C(=C\OC)C(=O)OC)c2)n1 [Compound F-12, methyl (Z)-2-[5-[4-(N-ethoxy-C-methyl-carbonimidoyl)triazol-2-yl]-2-methyl-phenoxy]-3-methoxy-prop-2-enoate] | – | ≥ 80 | ≥ 80 | ≥ 80 | ≥ 80 | ≥ 80 | ≥ 80 | ≥ 80 | – | ≥ 80 | ≥ 80 | – | ≥ 80 | ≥ 80 | ≥ 80 | 113 to 116
